In the NIST ThermoML archive (doi:10.1021/je034136z):
Where “and” joins values, the source holds several entries; their conditions need not be identical. Equal values may be shown once. Numbers after ± are expanded uncertainties. One block for each compound: values may come before it.

Settings: Liquid

SMILES: CCO [ethanol]
vapor or sublimation pressure (323.17 K): 29.27 ± 0.36 kPa

SMILES: CC(C)O [propan-2-ol]
vapor or sublimation pressure (323.16 K): 23.47 ± 0.35 kPa

SMILES: CC(C)(C)O [2-methylpropan-2-ol]
vapor or sublimation pressure (322.78 K): 23.07 ± 0.35 kPa

Further lines, results first:

vapor or sublimation pressure (323.14 K): 55.57 ± 0.41 kPa
SMILES: CO [methanol]

vapor or sublimation pressure (323.11 K): 10.57 ± 0.34 kPa
SMILES: CCC(C)O (centres undefined) [butan-2-ol]

vapor or sublimation pressure (322.79 K): 605.14 ± 2 kPa
vapor or sublimation pressure (323.11 K): 608.94 ± 2 kPa
vapor or sublimation pressure (323.14 K): 608.84 ± 2 kPa and 609.14 ± 2 kPa
vapor or sublimation pressure (323.15 K): 611.04 ± 2.1 kPa
SMILES: C=C(C)C [2-methylpropene]
